According to the NIST ThermoML archive (doi:10.1016/j.jct.2009.07.017):

Experiments:
[1] = 298.15 K; 101.33 kPa; Liquid; Vibrating tube method
[2] = refractive index (Na D-line) (dimensionless); conditions: 298.15 K; 101.33 kPa; Liquid; Standard Abbe refractometry
[3] = xn = mol fraction of the nth substance listed; conditions: 101.3 kPa, Liquid, Vibrating tube method

CCOS(=O)(=O)[O-].CC[n+]1cccc(C)c1 [1-ethyl-3-methylpyridinium ethylsulfate]
Conditions | mass density [kg/m3] | refractive index
[1] | 1219.61 | –
[2] | – | 1.50591

c1ccccc1 [benzene] + CCCCCCCC
[3], x2 = 0
Conditions | mass density [kg/m3]
283.15 K | 889.51
298.15 K | 873.57

c1ccccc1 [benzene] + CCCCCCCCC
[3], x2 = 0
Conditions | mass density [kg/m3]
283.15 K | 889.51
298.15 K | 873.57

CCCCCCCCC [nonane] + c1ccccc1
mass density [kg/m3], [3]
Conditions | x1 = 0.0982 | x1 = 0.1996 | x1 = 0.304 | x1 = 0.4001 | x1 = 0.497 | x1 = 0.5995 | x1 = 0.6989 | x1 = 0.7959 | x1 = 0.8928 | x1 = 1
283.15 K | 856.81 | 829.82 | 807.64 | 790.32 | 775.74 | 762.31 | 751.53 | 741.95 | 733.72 | 725.51
298.15 K | 841.94 | 815.82 | 794.17 | 777.31 | 763.05 | 750.12 | 739.44 | 730.03 | 721.91 | 713.99

CCCCCCCC [octane] + c1ccccc1
mass density [kg/m3], [3]
Conditions | x1 = 0.1024 | x1 = 0.2013 | x1 = 0.3006 | x1 = 0.4234 | x1 = 0.5001 | x1 = 0.5985 | x1 = 0.6982 | x1 = 0.7972 | x1 = 0.9031 | x1 = 1
283.15 K | 855.9 | 828.82 | 806.11 | 782.24 | 769.31 | 754.84 | 741.81 | 730.25 | 719.42 | 710.5
298.15 K | 840.84 | 814.43 | 792.21 | 768.91 | 756.54 | 742.05 | 729.34 | 718.02 | 707.31 | 698.6
